Legend:
[1] = test system: M. tuberculosis Erdman (TMCC107); assay: Murine model of acute TB infection; type: in vivo; settings: BALB/c mice, subcutaneous injection 400 mg/kg daily, 12 consecutive days
[2] = Single ascending maximum tolerated dose study in rat; type: in vivo; settings: female Sprague-Dawley rats, 5 second IV bolus
Procedure: Several compounds were assessed in single ascending maximum tolerated studies. The compounds assessed were 1810; 3408, a prodrug form of compound 1810; 1599, a chloro homologue of compound 1810; and gentamicin, an antimicrobial associated with ototoxicity. The study was carried out in female Sprague-Dawley rats (n=3 per group). All the drug solutions were prepared in water and PLASMA-LYTE A (50:50; […] was obtained from Baxter Healthcare Corporation, Deerfield, Ill.). Each group of rats were fasted overnight with access to water aJ libitum and a fixed volume (2 mL) of drug-containing solution was administered via the jugular vein catheter. Food was withheld for 3 h post dosing. Different phases of the study were classified on five different speeds of i.v, administration; Phase 1: 5 sec, Phase 2: 30 sec, Phase 3: 5 min, Phase 4: 15 min, Phase 5: 30 min. In the first and second phases, a set of predefined dose levels: 10, 25, 50, 75, 100, 150, 300, 350, 400, 450 and 500 mg/kg. Escalation to the next higher dose was conditional upon absence of signs of acute toxicity following the immediate lower dose over a 24 h period. All animals were monitored by visual inspection focused on focus on changes in skin, fur, eyes, and also respiratory, circulatory, autonomic and central nervous systems, along with somatomotor activity and behavior pattern, including tremors, convulsions, salivation, diarrhea, lethargy, sleep and coma. A dose level was deemed an MTD if […] of acute toxicity were observed and that dose was chosen for the second phase of the study where the process was repeated to determine a toxic dose. For third, fourth and fifth phases, dosing solution was infused by a Instech tethering system (Instech Laboratories Inc., Plymouth Meeting, Pa.) where the animal is freely moving within its cage, the catheter connection is held in place by a vascular access harness and a swivel system, and the drug administration is performed via a Harvard Apparatus programmable syringe pump. After dosing, the tether was removed immediately after completion of the infusion and the catheter was flushed with (100 μL) PlasmaLyte A. Surviving animals from the previous dose with no signs of toxicity were re-used in either phases of these studies upon allowing a one day drug washout period.

[3] = Pharmacokinetic study in rat; type: in vivo, Sprague-Dawley rats; settings: intravenous
Procedure: (§1) LC-MS Method 1. Quantitative determination of the amount of a disclosed compound present in blood, plasma, or urinary can be determined by LC-MS/MS methods. Briefly, a suitable method involves use of calibrants (0.976, 1.95, 3.91, 7.81, 15.63, 31.25, 62.5, 125, 250, 500, 1000 ng/mL) were in sample matrix (e.g., rat plasma, blood or urine). A separate solution of disclosed compound (independent of calibrants) is used to prepare quality controls. Appropriate volumes of working solutions are added to the sample matrix to yield the final concentrations of 1, 50, 1000 ng/mL. Linearity for calibrants in duplicate is assessed by subjecting the spiked concentrations and the respective peak areas to least-square linear regression analysis with and without intercepts, and a weighted least-square regression (1/x or 1/x^2). The lowest limit of quantitation (LLOQ) in the standard curve measured with acceptable accuracy and precision for a disclosed compound from rat plasma has been previously established as 0.976 ng/mL for a representative compound, 1810. All samples are precipitated by the addition of 4-volumes (100 μL) of IS, 1369 (10 ng/mL) in methanol to a volume (25 μL) of plasma/urine test sample. The samples are vortexed (Fisher scientific, USA) for 30 sec and centrifuged at 10,000×g for 10 min at 4° C. and the supernatants are collected for LC-MS/MS analysis. Chromatographic separation is carried out using a Shimadzu Nexera XR (LC-20ADXR) liquid chromatograph (Shimadzu Corporation, USA) consisting of two pumps, online degasser, system controller and an auto sampler. Mobile phase consisting of a) water with 1.6% nonafluoropentanoic acid and 0.7% formic acid b) 90% acetonitrile with 0.8% nonafluoropentanoic acid and 0.35% formic acid can be used at a flow rate of 0.5 rnLirnin in gradient mode. A Waters® Symmetry ® 3.5μ C8, 50×2.1 mm column (Waters, Milford, Mass.) is used for the separation. Samples (5 μL) are injected on column and the eluate is provided directly to an API 5500 triple quadruple mass spectrometer (Applied Biosystems, Foster City, Calif.) equipped with a turbospray ion source operated in the positive ion mode. The optimized multiple reactions monitoring (MRM) conditions for 3408 (549.2A207.1), 1810 (469.2^207.1) and IS (418.3^207.1) are monitored with a declustering potential of 45 V and collision energy of 25 eV. Data are acquired and processed with Analyst software version 1.6.2 (Applied Biosystems, Foster City, Calif.).
Pharmacokinetic assessment of the disclosed compounds can be determined in a rat model as described herein. Briefly, catheterized male Sprague-Dawley rats from Harlan Bioscience (Indianapolis, Ind.), weighing 200-250 g, are kept at a 12 h light/dark cycle with access to food and water ad libitum. The procedures are approved by the Institutional Animal Care and Use Committee of the University of Tennessee Health Science Center. Formulations of a disclosed compound are prepared in water (50%) and PlasniaLyte A (50%). Test compound can be administered either via intravenous route (10 mg/kg) via femoral vein catheter with the study conducted using a group of 6 rats. Blood (250 μL) was collected via the jugular vein catheter at 0.08, 0.25, 0.5, 0.75, 1, 1.5, 2, 4, 6, 8, 10, 24 and 48 h after drug administration. Plasma was immediately separated by centrifugation (6,000×g for 10 min at 4° C.) and stored at −70° C. until analysis. The plasma concentration was determined as described herein above in LC-MS Method 1, and plasma concentration-time courses were fitted to a non-compartmental model using Phoenix WinNonlin 7.0 (Certara L. P., Princeton, NJ). Area under the concentration-time profile curve (AUC) was calculated by the log trapezoidal rule by log-linear regression and extrapolated to infinity by addition of the value Ct/λZ, where Ct is the concentration at the last time point, and λZ the terminal slope (determined by linear regression) of the log concentration-time curve. […]

[4] = PlasmaLyte A stability study; type: physicochemical; settings: room temperature; for % remaining: 10 mg/mL in PlasmaLyte A and milli-Q water (50:50)
Procedure: as §1
Stability of compound 3408 was determined in a mixture of PlasmaLyte A and milli-Q water (50:50) at room temperature. Briefly, a 10 mg/mL solution of compound 3408 was prepared in triplicate and samples were collected (0, 1, 2, 3, 4, 5, 6 h). These samples were processed by addition of 4-volumes of methanol and quantitated by LC-MS/MS method disclosed herein in LC-MS Method 1. The percentage drug remaining at each hour was calculated with respect to the concetration at the initial time point.

Question: Which results are given for `CN[C@@H]1[C@H](O)[C@H](NC)[C@H]2O[C@]3(O)[C@H](O[C@@H]2[C@H]1O)O[C@H](C)C[C@H]3NC(=O)Cc1ccc(OP(=O)(O)O)cn1` [Compound 3408, 6-(2-oxo-2-(((2R,4R,4a5,5aR,6S,7S,8R,9S,9aR,10aS)-4a,7,9-trihydroxy-2-methyl-6,8-bis(methylamino)decahydro-2H-benzo[b]pyrano[2,3-e][1,4]dioxin-4-yl)amino)ethyl)pyridin-3-yl dihydrogen phosphate]?
Answer: Efficacy in mouse model of acute tuberculosis infection (lung CFU, FIG. 1) [1]: similarly active; MTD [2]: >500 mg/kg; MTD at 24 h ([2]; female, Sprague-Dawley, rat, in vivo, iv, read-out: MTD): > 500 mg/kg; In vivo conversion of prodrug to parent (in words) [3]: rapidly converted in vivo to the parent drug form; % remaining ([4]; hour 0): 100%; % remaining ([4]; hour 1): 103%; % remaining ([4]; hour 2): 101%; % remaining ([4]; hour 3): 105%; % remaining ([4]; hour 4): 104%; % remaining ([4]; hour 5): 104%; % remaining ([4]; hour 6): 104%; time stable in solution ([4]; 10 mg/mL in Plasmalyte A and milli-Q water mixture (50:50)): at least 6 hours

Source: patent US20210388012A1, “METHODS AND COMPOSITIONS FOR PRODRUG FORMS OF SPECTINOMYCIN AND SPECTINAMIDE ANALOGS” (priority 2018, published 2021)
